Reference: PubChem BioAssay (NCI)
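Compound exposure: 48 hours, 5 concentrations, 96-well plates. TGI: concentration producing complete growth inhibition.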

Legend:
Assay in all cases: NCI anticancer screen, dose series, 48 h
M14 melanoma = system: M14 melanoma
OVCAR-4 ovarian = system: OVCAR-4 ovarian
RPMI-8226 leukemia = system: RPMI-8226 leukemia
OVCAR-5 ovarian = system: OVCAR-5 ovarian
SN12C renal = system: SN12C renal
KM12 colon = system: KM12 colon
KM20L2 colon = system: KM20L2 colon
SR leukemia = system: SR leukemia
ACHN renal = system: ACHN renal
CAKI-1 renal = system: CAKI-1 renal
A498 renal = system: A498 renal
LOX IMVI melanoma = system: LOX IMVI melanoma
SF-268 CNS = system: SF-268 CNS
XF 498 CNS = system: XF 498 CNS
SK-MEL-2 melanoma = system: SK-MEL-2 melanoma
DMS 114 small cell lung = system: DMS 114 small cell lung
CCRF-CEM leukemia = system: CCRF-CEM leukemia
HT29 colon = system: HT29 colon
UACC-62 melanoma = system: UACC-62 melanoma
TK-10 renal = system: TK-10 renal
COLO 205 colon = system: COLO 205 colon
M19-MEL melanoma = system: M19-MEL melanoma
SNB-75 CNS = system: SNB-75 CNS
UACC-257 melanoma = system: UACC-257 melanoma
DLD-1 colon = system: DLD-1 colon
NCI-H522 lung = system: NCI-H522 lung
SNB-19 CNS = system: SNB-19 CNS
NCI-H23 lung = system: NCI-H23 lung
UO-31 renal = system: UO-31 renal
LXFL 529 NSCLC = system: LXFL 529 NSCLC
DMS 273 small cell lung = system: DMS 273 small cell lung
NCI-H226 lung = system: NCI-H226 lung
OVCAR-8 ovarian = system: OVCAR-8 ovarian
IGROV1 ovarian = system: IGROV1 ovarian
MALME-3M melanoma = system: MALME-3M melanoma
HOP-92 NSCLC = system: HOP-92 NSCLC
HL-60(TB) leukemia = system: HL-60(TB) leukemia
HCC-2998 colon = system: HCC-2998 colon
NCI-H460 lung = system: NCI-H460 lung
U251 CNS = system: U251 CNS
HOP-62 NSCLC = system: HOP-62 NSCLC
SK-MEL-5 melanoma = system: SK-MEL-5 melanoma
SW-620 colon = system: SW-620 colon
K-562 leukemia = system: K-562 leukemia
SF-295 CNS = system: SF-295 CNS
HCT-15 colon = system: HCT-15 colon
SK-OV-3 ovarian = system: SK-OV-3 ovarian
A549 NSCLC = system: A549 NSCLC
SF-539 CNS = system: SF-539 CNS
EKVX NSCLC = system: EKVX NSCLC
SK-MEL-28 melanoma = system: SK-MEL-28 melanoma
786-0 renal = system: 786-0 renal
SNB-78 CNS = system: SNB-78 CNS
OVCAR-3 ovarian = system: OVCAR-3 ovarian
MOLT-4 leukemia = system: MOLT-4 leukemia
HOP-18 NSCLC = system: HOP-18 NSCLC
RXF 393 renal = system: RXF 393 renal
HCT-116 colon = system: HCT-116 colon
MCF7 breast = system: MCF7 breast
BT-549 breast = system: BT-549 breast
HS 578T breast = system: HS 578T breast
MDA-MB-435 = system: MDA-MB-435
DU-145 prostate = system: DU-145 prostate
MDA-MB-231 breast = system: MDA-MB-231 breast
T-47D breast = system: T-47D breast
PC-3 prostate = system: PC-3 prostate

`C[C@]12CCC[C@H](Cl)C1(O)C[C@H](C(=O)O)CC2` (some centres undefined) showed a TGI (M14 melanoma) of over 100 µM, a TGI (OVCAR-4 ovarian) of over 100 µM and a TGI (RPMI-8226 leukemia) of over 100 µM. For the same molecule, the TGI (OVCAR-5 ovarian) was over 100 µM, the TGI (SN12C renal) was over 100 µM and the TGI (KM12 colon) was over 100 µM. For the same molecule, the TGI (KM20L2 colon) was over 100 µM, the TGI (SR leukemia) was over 100 µM and the TGI (ACHN renal) was over 100 µM. It also gave a TGI (CAKI-1 renal) of over 100 µM, a TGI (A498 renal) of over 100 µM and a TGI (LOX IMVI melanoma) of over 100 µM. It also gave a TGI (SF-268 CNS) of over 100 µM, a TGI (XF 498 CNS) of over 100 µM and a TGI (SK-MEL-2 melanoma) of over 100 µM. It also gave a TGI (DMS 114 small cell lung) of over 100 µM, a TGI (CCRF-CEM leukemia) of over 100 µM and a TGI (HT29 colon) of over 100 µM. It also gave a TGI (UACC-62 melanoma) of over 100 µM, a TGI (TK-10 renal) of over 100 µM and a TGI (COLO 205 colon) of over 100 µM. The TGI (M19-MEL melanoma) was over 100 µM, the TGI (SNB-75 CNS) was over 100 µM and the TGI (UACC-257 melanoma) was over 100 µM. For the same molecule, the TGI (DLD-1 colon) was over 100 µM, the TGI (NCI-H522 lung) was over 100 µM and the TGI (SNB-19 CNS) was over 100 µM. For the same molecule, the TGI (NCI-H23 lung) was over 100 µM, the TGI (UO-31 renal) was over 100 µM and the TGI (LXFL 529 NSCLC) was over 100 µM. For the same molecule, the TGI (DMS 273 small cell lung) was over 100 µM, the TGI (NCI-H226 lung) was over 100 µM and the TGI (OVCAR-8 ovarian) was over 100 µM. The TGI (IGROV1 ovarian) was over 100 µM, the TGI (MALME-3M melanoma) was over 100 µM and the TGI (HOP-92 NSCLC) was over 100 µM. For the same molecule, the TGI (HL-60(TB) leukemia) was over 100 µM, the TGI (HCC-2998 colon) was over 100 µM and the TGI (NCI-H460 lung) was over 100 µM. It also gave a TGI (U251 CNS) of over 100 µM, a TGI (HOP-62 NSCLC) of over 100 µM and a TGI (SK-MEL-5 melanoma) of over 100 µM. For the same molecule, the TGI (SW-620 colon) was over 100 µM, the TGI (K-562 leukemia) was over 100 µM and the TGI (SF-295 CNS) was over 100 µM. It also gave a TGI (HCT-15 colon) of over 100 µM, a TGI (SK-OV-3 ovarian) of over 100 µM and a TGI (A549 NSCLC) of over 100 µM. For the same molecule, the TGI (SF-539 CNS) was over 100 µM, the TGI (EKVX NSCLC) was over 100 µM and the TGI (SK-MEL-28 melanoma) was over 100 µM. For the same molecule, the TGI (786-0 renal) was over 100 µM, the TGI (SNB-78 CNS) was over 100 µM and the TGI (OVCAR-3 ovarian) was over 100 µM. It also gave a TGI (MOLT-4 leukemia) of over 100 µM, a TGI (HOP-18 NSCLC) of over 100 µM and a TGI (RXF 393 renal) of over 100 µM. For the same molecule, the TGI (HCT-116 colon) was over 100 µM.

Molecule `Cc1ccc(NC(=O)NC(=O)c2ccc([N+](=O)[O-])cc2[N+](=O)[O-])cc1Oc1ncc(Cl)cn1` has a TGI (M14 melanoma) of 11.3 µM, a TGI (OVCAR-4 ovarian) of 26 µM and a TGI (RPMI-8226 leukemia) of 3.08 µM. It also gave a TGI (SN12C renal) of 16.6 µM, a TGI (KM12 colon) of 6.83 µM and a TGI (KM20L2 colon) of 0.515 µM. The TGI (SR leukemia) was 16.9 µM, the TGI (ACHN renal) was over 100 µM and the TGI (CAKI-1 renal) was 62.9 µM. The TGI (MCF7 breast) was 20.5 µM, the TGI (A498 renal) was 22.2 µM and the TGI (LOX IMVI melanoma) was 11.9 µM. For the same molecule, the TGI (SF-268 CNS) was 21.8 µM, the TGI (XF 498 CNS) was 16.9 µM and the TGI (DMS 114 small cell lung) was 10.1 µM. It also gave a TGI (CCRF-CEM leukemia) of over 62.3 µM, a TGI (HT29 colon) of 2.57 µM and a TGI (BT-549 breast) of 32.7 µM. It also gave a TGI (UACC-62 melanoma) of 21 µM, a TGI (TK-10 renal) of over 100 µM and a TGI (COLO 205 colon) of 5.9 µM. It also gave a TGI (M19-MEL melanoma) of 21.7 µM, a TGI (SNB-75 CNS) of 2.4 µM and a TGI (UACC-257 melanoma) of 16.9 µM. It also gave a TGI (HS 578T breast) of 10.8 µM, a TGI (DLD-1 colon) of 12.5 µM and a TGI (NCI-H522 lung) of 0.603 µM. The TGI (SNB-19 CNS) was 21.4 µM, the TGI (NCI-H23 lung) was 9.39 µM and the TGI (MDA-MB-435) was 0.542 µM. It also gave a TGI (UO-31 renal) of 17.3 µM, a TGI (LXFL 529 NSCLC) of 11.1 µM and a TGI (DMS 273 small cell lung) of 1.08 µM. For the same molecule, the TGI (NCI-H226 lung) was 2.53 µM, the TGI (OVCAR-8 ovarian) was 6.7 µM and the TGI (IGROV1 ovarian) was 29.7 µM. For the same molecule, the TGI (MALME-3M melanoma) was 22.3 µM, the TGI (HL-60(TB) leukemia) was 0.584 µM and the TGI (HCC-2998 colon) was 0.619 µM. For the same molecule, the TGI (NCI-H460 lung) was 14.8 µM, the TGI (U251 CNS) was 3.83 µM and the TGI (DU-145 prostate) was over 100 µM. It also gave a TGI (HOP-62 NSCLC) of 12.5 µM, a TGI (SK-MEL-5 melanoma) of 0.819 µM and a TGI (MDA-MB-231 breast) of 24.2 µM. For the same molecule, the TGI (SW-620 colon) was 12.6 µM, the TGI (K-562 leukemia) was over 37.4 µM and the TGI (SF-295 CNS) was 43.5 µM. It also gave a TGI (HCT-15 colon) of 11.2 µM, a TGI (SK-OV-3 ovarian) of 25.7 µM and a TGI (A549 NSCLC) of over 40.2 µM. The TGI (T-47D breast) was 40.6 µM, the TGI (SF-539 CNS) was 0.91 µM and the TGI (SK-MEL-28 melanoma) was 24.1 µM. It also gave a TGI (PC-3 prostate) of 12.2 µM, a TGI (786-0 renal) of 13.8 µM and a TGI (SNB-78 CNS) of 26.5 µM. For the same molecule, the TGI (OVCAR-3 ovarian) was 13.6 µM, the TGI (MOLT-4 leukemia) was 49.8 µM and the TGI (HOP-18 NSCLC) was 25.3 µM. It also gave a TGI (HCT-116 colon) of 4.78 µM.
